Assays:
Settings in all cases: 72 h
[1] = test system: Caco-2; assay: cell viability relative to DMSO; higher = less toxic
[2] = test system: Calu-3; assay: as above
[3] = test system: U2OS; assay: as above
[4] = test system: Vero E6; assay: as above
[5] = test system: Caco-2; assay: relative viability EC50 (midpoint between 100% and the lowest measured viability); higher = less toxic
[6] = test system: Calu-3; assay: as above
[7] = test system: U2OS; assay: as above
[8] = test system: Vero E6; assay: as above
[9] = test system: Caco-2; assay: drug sensitivity score (DSS) for viability; higher = more toxic; extreme values may be limits of the assay
[10] = test system: Calu-3; assay: as above
[11] = test system: U2OS; assay: as above
[12] = test system: Vero E6; assay: as above
[13] = test system: HepG2; assay: cell viability relative to DMSO; higher = less toxic
[14] = test system: HepG2; assay: drug sensitivity score (DSS) for viability; higher = more toxic; extreme values may be limits of the assay
[15] = test system: HepG2; assay: relative viability EC50 (midpoint between 100% and the lowest measured viability); higher = less toxic

| Structure (SMILES) | cell viability ([1]; 1 nM) [%] | cell viability ([1]; 10 nM) [%] | cell viability ([1]; 100 nM) [%] | cell viability ([1]; 1000 nM) [%] | cell viability ([1]; 10000 nM) [%] | cell viability ([2]; 1 nM) [%] | cell viability ([2]; 10 nM) [%] | cell viability ([2]; 100 nM) [%] | cell viability ([2]; 1000 nM) [%] | cell viability ([2]; 10000 nM) [%] | cell viability ([3]; 1 nM) [%] | cell viability ([3]; 10 nM) [%] | cell viability ([3]; 100 nM) [%] | cell viability ([3]; 1000 nM) [%] | cell viability ([3]; 10000 nM) [%] | cell viability ([4]; 1 nM) [%] | cell viability ([4]; 10 nM) [%] | cell viability ([4]; 100 nM) [%] | cell viability ([4]; 1000 nM) [%] | cell viability ([4]; 10000 nM) [%] | relative viability EC50 [5] [µM] | relative viability EC50 [6] [µM] | relative viability EC50 [7] [µM] | relative viability EC50 [8] [µM] | drug sensitivity score [9] | drug sensitivity score [10] | drug sensitivity score [11] | drug sensitivity score [12] | cell viability ([13]; 1 nM) [%] | cell viability ([13]; 10 nM) [%] | cell viability ([13]; 100 nM) [%] | cell viability ([13]; 1000 nM) [%] | cell viability ([13]; 10000 nM) [%] | drug sensitivity score [14] | relative viability EC50 [15] [µM] |
| --- | --- | --- | --- | --- | --- | --- | --- | --- | --- | --- | --- | --- | --- | --- | --- | --- | --- | --- | --- | --- | --- | --- | --- | --- | --- | --- | --- | --- | --- | --- | --- | --- | --- | --- | --- |
| CCOC(=O)O[C@]1(C(=O)OCCl)CC[C@H]2[C@@H]3CCC4=CC(=O)C=C[C@]4(C)[C@H]3[C@@H](O)C[C@@]21C [loteprednol] | 112 | 104 | 99.1 | 92.1 | 77.9 | 98.8 | 100 | 103 | 87.7 | 95.2 | 105 | 102 | 100 | 93.4 | 98.1 | 102 | 100 | 102 | 99.2 | 96 | > 10 | > 10 | > 10 | > 10 | 1.6 | 0.6 | 0 | 0 |  |  |  |  |  |  |  |
| N#C[C@@H]1C[C@@H]2C[C@@H]2N1C(=O)[C@@H](N)C12CC3CC(CC(O)(C3)C1)C2 | 101 | 98.6 | 95.8 | 104 | 98.2 | 98.2 | 108 | 92.8 | 108 | 97.7 | 98.5 | 102 | 93.5 | 100 | 87.7 | 95.5 | 104 | 97.8 | 97.9 | 96.6 | > 10 | > 10 | > 10 | > 10 | 0 | 0 | 0 | 0 |  |  |  |  |  |  |  |
| CCN(CCO)CCCOc1ccc2c(Nc3cc(CC(=O)Nc4cccc(F)c4)[nH]n3)ncnc2c1 [barasertib-HQPA] | 93 | 100 | 78.4 | 91.6 | 88.4 | 95.1 | 93 | 97.2 | 92.6 | 94.2 | 94.4 | 95.8 | 93.7 | 91.7 | 87 | 93.8 | 96 | 98.2 | 91 | 88.2 | > 10 | > 10 | > 10 | > 10 | 0.6 | 0 | 0 | 0 | 99.5 | 99.7 | 77.8 | 72.8 | 78.8 | 6.9 |  |
| N#C/C(=C\c1ccc(O)c(O)c1)C(=O)NCc1ccccc1 [AG-490] | 95.9 | 98.7 | 92.5 | 92.2 | 82.1 | 96.7 | 103 | 92.8 | 96.7 | 91.6 | 94.1 | 99.8 | 95.8 | 103 | 95.5 | 94.1 | 98.2 | 98.7 | 94.7 | 86.6 | > 10 | > 10 | > 10 | > 10 | 0.7 | 0 | 0 | 0.2 | 96.4 | 101 | 99.9 | 95 | 66.6 | 2.4 |  |
| Cc1cc(N)c2ccccc2[n+]1CCCCCCCCCC[n+]1c(C)cc(N)c2ccccc21 [dequalinium] | 96.9 | 94.4 | 98.9 | 92.2 | 36.4 | 101 | 92.7 | 104 | 107 | 73.5 | 104 | 102 | 96.2 | 102 | 60.1 | 101 | 104 | 104 | 102 | 87.4 | 2.16 |  |  | > 10 | 4.8 | 0.8 | 1.8 | 0 | 98.6 | 100 | 92.7 | 76.2 | 33.8 | 6.4 | 1.38 |
| COC(F)(F)C(Cl)Cl [methoxyflurane] | 96.2 | 98.1 | 96.9 | 99.8 | 94.4 |  |  |  |  |  | 99.8 | 97.3 | 98.5 | 95.3 | 100 | 104 | 102 | 103 | 96.7 | 96.3 | > 10 |  | > 10 | > 10 | 0 |  | 0 | 0 | 103 | 96.3 | 100 | 94 | 109 | 0 | > 10 |
| O=C(CCCN1CCC(O)(c2ccc(Cl)cc2)CC1)c1ccc(F)cc1 [haloperidol] | 110 | 104 | 97.1 | 100 | 103 | 99.5 | 97.9 | 92.6 | 104 | 114 | 102 | 104 | 97.6 | 103 | 99.1 | 101 | 97.3 | 95.1 | 98.9 | 94.1 | > 10 | > 10 | > 10 | > 10 | 0 | 0 | 0 | 0 |  |  |  |  |  |  |  |
| O=c1[nH]c(=O)n([C@H]2C[C@H](O)[C@@H](CO)O2)cc1Br [broxuridine] | 96 | 85.3 | 91.6 | 94.4 | 106 | 94.2 | 86.5 | 102 | 95.9 | 101 | 100 | 98 | 100 | 96.4 | 97.5 | 110 | 107 | 99 | 97.8 | 79 | > 10 | > 10 | > 10 | > 10 | 0 | 0 | 0 | 1 | 97 | 97.1 | 98.1 | 95.3 | 66.7 | 2.3 |  |
